The text below walks through data of patent US8129371B2, “Thienopyrimidine and pyrazolopyrimidine compounds and their use as mTOR kinase and PI3 kinase inhibitors” (Wyeth LLC, priority 2007, dated 2012).

One assay deals with prostate line LNCap. Nature of the assay: In vitro cell culture growth assay (MTS), LNCap. It is filed as cell-based. The settings on record: Homo sapiens, LNCaP, 72 h, LNCap cells, three days after drug treatment. In a few lines: (§1)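 Viable cell density is assessed three days after inhibitor addition via MTS conversion, normalised to vehicle-treated cells.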
The target in assay [1] is T1, PI3K (Homo sapiens, UniProt P48736).
T1 construct: PI3 Kinase γ IC50; other: PI3 Kinase γ; other: PI3 Kinase γ isoform, fluorescence polarization
T1 sequence (P48736 whole entry, canonical isoform): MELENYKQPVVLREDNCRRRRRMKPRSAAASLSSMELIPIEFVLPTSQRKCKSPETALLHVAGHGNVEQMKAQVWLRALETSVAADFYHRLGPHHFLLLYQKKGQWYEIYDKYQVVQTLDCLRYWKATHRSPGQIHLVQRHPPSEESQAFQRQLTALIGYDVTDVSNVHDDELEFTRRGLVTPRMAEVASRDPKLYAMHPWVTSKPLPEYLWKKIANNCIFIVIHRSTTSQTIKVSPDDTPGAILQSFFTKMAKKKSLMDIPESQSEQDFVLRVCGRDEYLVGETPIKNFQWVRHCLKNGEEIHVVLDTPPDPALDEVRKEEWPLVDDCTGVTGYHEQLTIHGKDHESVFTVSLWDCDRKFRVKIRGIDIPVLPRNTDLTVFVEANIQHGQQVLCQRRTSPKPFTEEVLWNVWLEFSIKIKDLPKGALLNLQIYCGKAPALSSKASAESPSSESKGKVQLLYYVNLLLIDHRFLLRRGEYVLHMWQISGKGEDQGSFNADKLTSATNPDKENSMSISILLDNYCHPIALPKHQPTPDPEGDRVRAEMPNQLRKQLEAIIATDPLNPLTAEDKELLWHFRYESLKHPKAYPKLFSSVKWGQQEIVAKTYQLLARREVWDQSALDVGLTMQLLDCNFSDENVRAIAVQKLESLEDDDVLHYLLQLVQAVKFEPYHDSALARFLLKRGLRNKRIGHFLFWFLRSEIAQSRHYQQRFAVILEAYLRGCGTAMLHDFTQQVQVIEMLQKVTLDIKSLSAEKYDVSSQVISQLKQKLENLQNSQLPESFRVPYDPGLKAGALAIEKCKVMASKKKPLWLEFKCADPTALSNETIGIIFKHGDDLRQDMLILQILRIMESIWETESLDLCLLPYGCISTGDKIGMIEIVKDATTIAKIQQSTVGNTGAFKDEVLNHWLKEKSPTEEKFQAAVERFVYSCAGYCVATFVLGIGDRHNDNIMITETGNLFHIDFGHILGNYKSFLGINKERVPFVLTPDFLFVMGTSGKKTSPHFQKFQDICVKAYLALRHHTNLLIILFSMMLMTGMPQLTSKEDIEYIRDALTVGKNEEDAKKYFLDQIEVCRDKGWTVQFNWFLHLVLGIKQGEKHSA
Nature of the assay: Fluorescence polarization assay for PI3K. It is filed as biochemical. The following applies: read-out: PI3 Kinase γ IC50. In a few lines:
(§2)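 Fluorescence-polarization competition readout: after 30–60 min of PIP2/ATP turnover in 1% DMSO, a stop mix with GST-GRP (70 nM) and red probe (10 nM) was added.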
A general note: Fluorescence polarisation rises when a labelled molecule tumbles more slowly, as on binding a larger partner.

The target in assay [2] is T2, PI3K (Homo sapiens, UniProt P42336).
T2 construct: PI3 Kinase α IC50; other: PI3 Kinase α; other: PI3 Kinase α isoform, fluorescence polarization
T2 sequence (P42336 whole entry, canonical isoform): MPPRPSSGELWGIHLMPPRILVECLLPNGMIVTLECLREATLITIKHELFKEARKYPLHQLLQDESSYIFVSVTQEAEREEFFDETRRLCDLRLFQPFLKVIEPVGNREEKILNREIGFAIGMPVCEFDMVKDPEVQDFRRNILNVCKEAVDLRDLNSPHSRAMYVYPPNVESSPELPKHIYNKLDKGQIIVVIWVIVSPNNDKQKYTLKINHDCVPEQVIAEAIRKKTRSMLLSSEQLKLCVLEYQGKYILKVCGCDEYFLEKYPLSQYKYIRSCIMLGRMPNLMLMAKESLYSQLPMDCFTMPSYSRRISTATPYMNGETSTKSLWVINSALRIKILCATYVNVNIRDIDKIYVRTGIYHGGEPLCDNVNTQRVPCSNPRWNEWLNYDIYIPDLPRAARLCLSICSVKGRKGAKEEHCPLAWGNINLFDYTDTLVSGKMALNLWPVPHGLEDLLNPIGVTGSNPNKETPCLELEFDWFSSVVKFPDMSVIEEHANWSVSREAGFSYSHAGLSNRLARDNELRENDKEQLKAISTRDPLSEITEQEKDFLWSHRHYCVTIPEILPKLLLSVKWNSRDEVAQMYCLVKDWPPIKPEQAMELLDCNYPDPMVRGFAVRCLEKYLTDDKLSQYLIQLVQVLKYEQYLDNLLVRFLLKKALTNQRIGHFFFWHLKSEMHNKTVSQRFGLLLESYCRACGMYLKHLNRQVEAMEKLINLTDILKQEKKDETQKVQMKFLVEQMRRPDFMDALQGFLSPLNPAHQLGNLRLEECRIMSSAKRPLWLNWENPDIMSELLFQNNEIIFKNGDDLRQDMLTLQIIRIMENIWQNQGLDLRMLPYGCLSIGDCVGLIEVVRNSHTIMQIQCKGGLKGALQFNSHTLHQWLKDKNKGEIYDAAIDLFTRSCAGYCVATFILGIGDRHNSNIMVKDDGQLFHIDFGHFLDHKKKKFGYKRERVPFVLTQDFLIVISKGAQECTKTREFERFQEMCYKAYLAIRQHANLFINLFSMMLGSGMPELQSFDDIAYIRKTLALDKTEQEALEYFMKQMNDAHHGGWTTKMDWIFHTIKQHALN
Nature of the assay: Fluorescence polarization assay for PI3K. It is filed as biochemical. The following applies: read-out: PI3 Kinase α IC50. The method, boiled down:
as §2

The next assay relates to breast line MDA468. Nature of the assay: In vitro cell culture growth assay (MTS), MDA468. The settings on record: Homo sapiens, 72 h, MDA468 cells, three days after drug treatment. It is filed as cell-based. The method, boiled down:
as §1

A further assay deals with T3, Human mTOR (FLAG-TOR) (Homo sapiens, UniProt P42345).
T3 construct: FLAG
Nature of the assay: Human mTOR kinase assay with purified enzyme, DELFIA format. The class given is biochemical. The method, boiled down: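 DELFIA readout: Eu-anti-P(T389)-S6K antibody (40 ng/mL, 1 h) on captured His6-S6K from the stopped reaction. Kinase step used purified FLAG-tagged human mTOR with test compound in HEPES (pH 7.4)/MnCl2/DTT buffer, 2 h at room temperature (linear 1–6 h), terminated by EDTA/EGTA.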

Setting [3] is: PI3 Kinase γ isoform, fluorescence polarization.
[4] abbreviates: PI3 Kinase α isoform, fluorescence polarization.
[5] abbreviates: purified human mTOR enzyme, DELFIA format.

Read-outs that look alike come from different tables or passages of the source.

The IC50 is the concentration needed to halve the response being measured. In the case of `COC(=O)Nc1ccc(-c2nc(N3CC4CCC(C3)O4)c3cnn(C4CCN(C(=O)OC)CC4)c3n2)cc1` [Example 119, methyl 4-[6-{4-[(methoxycarbonyl)amino]phenyl}-4-(8-oxa-3-azabicyclo[3.2.1]oct-3-yl)-1H-pyrazolo[3,4-d]pyrimidin-1-yl]piperidine-1-carboxylate], the IC50 in the assay on prostate line LNCap is 0.18 µM; at PI3K [1] (PI3 Kinase γ), more than 10 µM; on PI3K [2] (PI3 Kinase α), 4.67 µM; in the assay with breast line MDA468, 1.2 µM; on Human mTOR (FLAG-TOR), 0.0036 µM.
The matching figures for `CCn1ncc2c(N3CC4CCC(C3)O4)nc(-c3ccc(NC(=O)OCCO)cc3)nc21` [Example 45, 2-hydroxyethyl {4-[1-ethyl-4-(8-oxa-3-azabicyclo[3.2.1]oct-3-yl)-1H-pyrazolo[3,4-d]pyrimidin-6-yl]phenyl}carbamate]: 0.1 µM, more than 10 µM, 1.61 µM, 0.27 µM and 0.0012 µM.
For `CCn1ncc2c(N3CC4CCC(C3)O4)nc(-c3ccc(NC(=O)Nc4ccc(CO)cc4)cc3)nc21` [Example 182, 1-{4-[1-ethyl-4-(8-oxa-3-azabicyclo[3.2.1]oct-3-yl)-1H-pyrazolo[3,4-d]pyrimidin-6-yl]phenyl}-3-[4-(hydroxymethyl)phenyl]urea] the same measures were less than 0.001 µM, 1.27 µM, 0.04 µM, less than 0.001 µM and 0.00012 µM.
`O=C(Nc1ccc(-c2nc(N3CC4CCC(C3)O4)c3cnn(C4CCC(O)CC4)c3n2)cc1)OCCO` (stereo not drawn) [Example 212, 2-hydroxyethyl {4-[1-(4-hydroxycyclohexyl)-4-(8-oxa-3-azabicyclo[3.2.1]oct-3-yl)-1H-pyrazolo[3,4-d]pyrimidin-6-yl]phenyl}carbamate]: the half-maximal inhibitory concentration (IC50) in the assay on prostate line LNCap is 0.042 µM; on PI3K [1] (PI3 Kinase γ), more than 10 µM; on PI3K [2] (PI3 Kinase α) it was 3.96 µM; with breast line MDA468, 0.19 µM; against Human mTOR (FLAG-TOR), 0.000565 µM.
Take `c1cc2cc(-c3nc(N4CC5CCC(C4)O5)c4sccc4n3)ccc2[nH]1` [Example 419, 2-(1H-indol-5-yl)-4-(8-oxa-3-azabicyclo[3.2.1]oct-3-yl)thieno[3,2-d]pyrimidine]: the IC50 with prostate line LNCap is 1.35 µM; at PI3K [1] (setting [3]), more than 10 µM; on PI3K [2] (setting [4]), 8.62 µM; in the assay with breast line MDA468, 7.9 µM; against Human mTOR (FLAG-TOR) (setting [5]), 0.022 µM.
`O=C(Nc1ccncc1)Nc1ccc(-c2nc(N3CC4CCC(C3)O4)c3cnn(C4CCN(Cc5cccnc5)CC4)c3n2)cc1` [Example 19, 1-(4-{4-(8-oxa-3-azabicyclo[3.2.1]oct-3-yl)-1-[1-(pyridin-3-ylmethyl)piperidin-4-yl]-1H-pyrazolo[3,4-d]pyrimidin-6-yl}phenyl)-3-pyridin-4-ylurea]: the IC50 is less than 0.0008 µM in the assay with prostate line LNCap; 0.391 µM at PI3K [1] (PI3 Kinase γ); 0.223 µM on PI3K [2] (PI3 Kinase α); less than 0.0008 µM in the assay on breast line MDA468; 0.00014 µM against Human mTOR (FLAG-TOR).
For the molecule `COC(=O)N1CCC(n2ncc3c(N4CC5CCC(C4)O5)nc(-c4ccc(NC(=O)OCCN5CCOCC5)cc4)nc32)CC1` [Example 117, methyl 4-[6-(4-{[(2-morpholin-4-ylethoxy)carbonyl]amino}phenyl)-4-(8-oxa-3-azabicyclo[3.2.1]oct-3-yl)-1H-pyrazolo[3,4-d]pyrimidin-1-yl]piperidine-1-carboxylate], the IC50 with prostate line LNCap was 4.4 µM; at PI3K [1] (PI3 Kinase γ), more than 10 µM; on PI3K [2] (PI3 Kinase α), more than 10 µM; in the assay on breast line MDA468, 22 µM; against Human mTOR (FLAG-TOR), more than 0.8 µM.
For the molecule `CC(C)n1ncc2c(N3CC4CCC(C3)O4)nc(-c3ccc(NC(=O)NC4CC4)cc3)nc21` [Example 142, 1-cyclopropyl-3-{4-[1-isopropyl-4-(8-oxa-3-azabicyclo[3.2.1]oct-3-yl)-1H-pyrazolo[3,4-d]pyrimidin-6-yl]phenyl}urea], the half-inhibitory concentration (IC50) in the assay on prostate line LNCap worked out at 0.001 µM; on PI3K [1] (PI3 Kinase γ), 5.38 µM; at PI3K [2] (PI3 Kinase α), 0.953 µM; with breast line MDA468, 0.048 µM; on Human mTOR (FLAG-TOR), 0.0002 µM.
Turning to `Nc1ncc(-c2nc(N3CC4CCC(C3)O4)c3sccc3n2)cn1` [Example 421, 5-[4-(8-oxa-3-azabicyclo[3.2.1]oct-3-yl)thieno[3,2-d]pyrimidin-2-yl]pyrimidin-2-amine], the IC50 in the assay on prostate line LNCap was determined as 1.2 µM; at PI3K [1] (setting [3]), 9.18 µM; on PI3K [2] (setting [4]), 0.246 µM; in the assay with breast line MDA468 it was 3.9 µM; against Human mTOR (FLAG-TOR) (setting [5]), 0.051 µM.
With `O=C1OCCN1c1ccc(-c2nc(N3CC4CCC(C3)O4)c3cnn(C4CCC5(CC4)OCCO5)c3n2)cc1` [Example 131, 3-{4-[1-(1,4-dioxaspiro[4.5]dec-8-yl)-4-(8-oxa-3-azabicyclo[3.2.1]oct-3-yl)-1H-pyrazolo[3,4-d]pyrimidin-6-yl]phenyl}-1,3-oxazolidin-2-one], the 50% inhibitory concentration (IC50) was more than 60 µM in the assay with prostate line LNCap; more than 10 µM on PI3K [1] (PI3 Kinase γ); more than 10 µM on PI3K [2] (PI3 Kinase α); more than 60 µM in the assay on breast line MDA468; 0.635 µM against Human mTOR (FLAG-TOR).
`O=C(Nc1ccc(-c2nc(N3CC4CCC(C3)O4)c3cnn(C4CCC(N5CCCC5)CC4)c3n2)cc1)Nc1cccnc1` (stereo not drawn) [Example 332, 1-{4-[4-(8-oxa-3-azabicyclo[3.2.1]oct-3-yl)-1-(4-pyrrolidin-1-ylcyclohexyl)-1H-pyrazolo[3,4-d]pyrimidin-6-yl]phenyl}-3-pyridin-3-ylurea]: the IC50 was determined as 0.37 µM in the assay with prostate line LNCap; 2.76 µM on PI3K [1] (setting [3]); 0.351 µM on PI3K [2] (setting [4]); 0.9 µM in the assay on breast line MDA468; 0.00245 µM at Human mTOR (FLAG-TOR) (setting [5]).
On to `Cn1ncc2c(N3CC4CCC(C3)O4)nc(-c3ccc(NC(=O)NCCO)cc3)nc21` [Example 54, 1-(2-hydroxyethyl)-3-{4-[1-methyl-4-(8-oxa-3-azabicyclo[3.2.1]oct-3-yl)-1H-pyrazolo[3,4-d]pyrimidin-6-yl]phenyl}urea], for which the IC50 stood at 0.41 µM with prostate line LNCap; 5.79 µM at PI3K [1] (PI3 Kinase γ); 0.437 µM at PI3K [2] (PI3 Kinase α); 1.2 µM in the assay with breast line MDA468; 0.0011 µM on Human mTOR (FLAG-TOR).
In the case of `COCC(COC)n1ncc2c(N3CC4CCC(C3)O4)nc(-c3ccc(NC(=O)NCCO)cc3)nc21` [Example 322, 1-(2-hydroxyethyl)-3-(4-{1-[2-methoxy-1-(methoxymethyl)ethyl]-4-(8-oxa-3-azabicyclo[3.2.1]oct-3-yl)-1H-pyrazolo[3,4-d]pyrimidin-6-yl}phenyl)urea], the IC50 in the assay with prostate line LNCap was 1 µM; at PI3K [1] (setting [3]), more than 10 µM; at PI3K [2] (setting [4]), 1.25 µM; in the assay on breast line MDA468 it was 2.8 µM; at Human mTOR (FLAG-TOR) (setting [5]) it was 0.00645 µM.
Turning to `CCNC(=O)Nc1ccc(-c2nc(N3CC4CCC(C3)O4)c3cnn(CC(F)(F)F)c3n2)cc1` [Example 3, 1-ethyl-3-{4-[4-(8-oxa-3-azabicyclo[3.2.1]oct-3-yl)-1-(2,2,2-trifluoroethyl)-1H-pyrazolo[3,4-d]pyrimidin-6-yl]phenyl}urea], the IC50 in the assay with prostate line LNCap is less than 0.027 µM; at PI3K [1] (PI3 Kinase γ), more than 10 µM; on PI3K [2] (PI3 Kinase α), 3.75 µM; in the assay with breast line MDA468, less than 0.027 µM; against Human mTOR (FLAG-TOR), 0.00038 µM.
As to `O=C(Nc1ccncc1)Nc1ccc(-c2nc(N3CC4CCC(C3)O4)c3cnn(CCO)c3n2)cc1` [Example 200, 1-{4-[1-(2-hydroxyethyl)-4-(8-oxa-3-azabicyclo[3.2.1]oct-3-yl)-1H-pyrazolo[3,4-d]pyrimidin-6-yl]phenyl}-3-pyridin-4-ylurea], the IC50 in the assay on prostate line LNCap came to 0.05 µM; on PI3K [1] (PI3 Kinase γ), 2.2 µM; on PI3K [2] (PI3 Kinase α), 0.092 µM; with breast line MDA468, 0.05 µM; against Human mTOR (FLAG-TOR), 0.00039 µM.
Regarding `CN1CCN(c2ccc(NC(=O)Nc3ccc(-c4nc(N5CC6CCC(C5)O6)c5cnn([C@H]6CC[C@H](O)CC6)c5n4)cc3)cc2)CC1` (relative stereo) [Example 404, 1-{4-[1-(trans-4-hydroxycyclohexyl)-4-(8-oxa-3-azabicyclo[3.2.1]oct-3-yl)-1H-pyrazolo[3,4-d]pyrimidin-6-yl]phenyl}-3-[4-(4-methylpiperazin-1-yl)phenyl]urea], the IC50 is less than 0.001 µM in the assay with prostate line LNCap; 1.14 µM on PI3K [1] (setting [3]); 0.093 µM on PI3K [2] (setting [4]); 0.018 µM in the assay with breast line MDA468; 0.00019 µM at Human mTOR (FLAG-TOR) (setting [5]).
Take `O=C(Nc1ccc(-c2nc(N3C4CCC3COC4)c3cnn(CC(F)(F)F)c3n2)cc1)Nc1ccc(N2CCOCC2)cc1` [Example 273, 1-(4-morpholin-4-ylphenyl)-3-{4-[4-(3-oxa-8-azabicyclo[3.2.1]oct-8-yl)-1-(2,2,2-trifluoroethyl)-1H-pyrazolo[3,4-d]pyrimidin-6-yl]phenyl}urea]: the half-maximal inhibitory concentration (IC50) in the assay with prostate line LNCap is 0.001 µM; at PI3K [1] (PI3 Kinase γ), more than 10 µM; on PI3K [2] (PI3 Kinase α), 0.618 µM; with breast line MDA468, 0.01 µM; on Human mTOR (FLAG-TOR), 0.00024 µM.
The matching figures for `CC(C)n1ncc2c(N3CC4CCC(C3)O4)nc(-c3ccc(NC(=O)OCC(O)CO)cc3)nc21` (stereo not drawn) [Example 146, 2,3-dihydroxypropyl {4-[1-isopropyl-4-(8-oxa-3-azabicyclo[3.2.1]oct-3-yl)-1H-pyrazolo[3,4-d]pyrimidin-6-yl]phenyl}carbamate]: 0.11 µM, 7.64 µM, 2.15 µM, 0.58 µM and 0.0029 µM.
